ChEMBL document CHEMBL1629626, “Ultrastructural effects of oritavancin on methicillin-resistant Staphylococcus aureus and vancomycin-resistant Enterococcus” (2009)
Calls of active or inactive are those of the source. The rule behind the calls is not given here.

What was measured:
[1] = tested on: Staphylococcus aureus; test: Antimicrobial activity against methicillin-resistant Staphylococcus aureus ATCC 43300 assessed as cell wall thickening at 1 ug/ml after 10 mins by transmission electron microscopy; format: functional, organism-based
[2] = tested on: Enterococcus faecalis; test: Antimicrobial activity against Enterococcus faecalis clinical isolate A5241515 assessed as growth inhibition at 0.12 ug/ml upto 3 hrs; format: functional, organism-based
[3] = tested on: Staphylococcus aureus; test: Antimicrobial activity against methicillin-resistant Staphylococcus aureus ATCC 43300 assessed as formation of membrane inclusions at 1 ug/ml after 10 mins by transmission electron microscopy; format: functional, organism-based
[4] = tested on: Enterococcus faecalis; test: Antimicrobial activity against Enterococcus faecalis clinical isolate A5241515 assessed as formation of large membrane inclusions at 1 ug/ml after 6 hrs by transmission electron microscopy; format: functional, organism-based
[5] = tested on: Enterococcus faecalis; test: Antimicrobial activity against Enterococcus faecalis clinical isolate A5241515 assessed as formation of extensive fibrils around the cell at 0.12 ug/ml after 3 hrs by transmission electron microscopy; format: functional, organism-based
[6] = tested on: Staphylococcus aureus; test: Antimicrobial activity against methicillin-resistant Staphylococcus aureus ATCC 43300 assessed as loss of septal midline at 1 ug/ml after 10 mins by transmission electron microscopy; format: functional, organism-based
[7] = tested on: Staphylococcus aureus; test: Antimicrobial activity against methicillin-resistant Staphylococcus aureus ATCC 43300 assessed as septal deformation at 1 ug/ml after 10 mins by transmission electron microscopy; format: functional, organism-based
[8] = tested on: Enterococcus faecalis; test: Antimicrobial activity against Enterococcus faecalis clinical isolate A5241515 assessed as septal deformation at 0.12 ug/ml after 3 hrs by transmission electron microscopy; format: functional, organism-based
[9] = tested on: Staphylococcus aureus; test: Antimicrobial activity against methicillin-resistant Staphylococcus aureus ATCC 43300 assessed as reduction in cell counts at 1 ug/ml after 10 mins; format: functional
[10] = tested on: Enterococcus faecalis; test: Antimicrobial activity against Enterococcus faecalis clinical isolate A5241515 assessed as cell ghost formation at 0.12 ug/ml after 3 hrs by transmission electron microscopy; format: functional, organism-based
[11] = tested on: Enterococcus faecalis; test: Antimicrobial activity against Enterococcus faecalis clinical isolate A5241515 assessed as growth inhibition at 1 ug/ml upto 6 hrs; format: functional, organism-based
[12] = tested on: Staphylococcus aureus; test: Antimicrobial activity against methicillin-resistant Staphylococcus aureus ATCC 43300 assessed as aberrant septum formation at 1 ug/ml after 10 mins by transmission electron microscopy; format: functional, organism-based
[13] = tested on: Staphylococcus aureus; test: Antimicrobial activity against methicillin-resistant Staphylococcus aureus ATCC 43300 assessed as formation of closing iris septal growth pattern at 16 ug/ml after 3 hrs by transmission electron microscopy; format: functional, organism-based
[14] = tested on: Staphylococcus aureus; test: Antimicrobial activity against methicillin-resistant Staphylococcus aureus ATCC 43300 assessed as loss of septal midline at 16 ug/ml after 3 hrs by transmission electron microscopy; format: functional, organism-based
[15] = tested on: Staphylococcus aureus; test: Antimicrobial activity against methicillin-resistant Staphylococcus aureus ATCC 43300 assessed as septal deformation at 16 ug/ml after 3 hrs by transmission electron microscopy; format: functional, organism-based
[16] = tested on: Staphylococcus aureus; test: Antimicrobial activity against methicillin-resistant Staphylococcus aureus ATCC 43300 assessed as reduction in cell counts at 16 ug/ml after 3 hrs; format: functional
[17] = tested on: Staphylococcus aureus; test: Antimicrobial activity against methicillin-resistant Staphylococcus aureus ATCC 43300 assessed as cell wall thickening at 16 ug/ml after 3 hrs by transmission electron microscopy; format: functional, organism-based
[18] = tested on: Staphylococcus aureus; test: Antimicrobial activity against methicillin-resistant Staphylococcus aureus ATCC 43300 assessed as aberrant septum formation at 16 ug/ml after 3 hrs by transmission electron microscopy; format: functional, organism-based

Row | Compound | Activity [1] | Activity [2] | Activity [3] | Activity [4] | Activity [5] | Activity [6] | Activity [7] | Activity [8] | fold change (FC) [9] | Activity [10] | Activity [11] | Activity [12] | Activity [13] | Activity [14] | Activity [15] | fold change (FC) [16] | Activity [17] | Activity [18]
1 | CN[C@H](CC(C)C)C(=O)N[C@H]1C(=O)N[C@@H](CC(N)=O)C(=O)N[C@H]2C(=O)N[C@H]3C(=O)N[C@H](C(=O)N[C@H](C(=O)O)c4cc(O)cc(O)c4-c4cc3ccc4O)[C@H](O[C@H]3C[C@](C)(N)[C@@H](O)[C@H](C)O3)c3ccc(c(Cl)c3)Oc3cc2cc(c3O[C@@H]2O[C@H](CO)[C@@H](O)[C@H](O)[C@H]2O[C@H]2C[C@](C)(NCc3ccc(-c4ccc(Cl)cc4)cc3)[C@@H](O)[C@H](C)O2)Oc2ccc(cc2Cl)[C@H]1O [ORITAVANCIN] | Active | Active | Active | Active | Active | Active | Active | Active | 0.35 | Active | Active | Active |  |  |  |  |  | 
2 | CN[C@H](CC(C)C)C(=O)N[C@H]1C(=O)N[C@@H](CC(N)=O)C(=O)N[C@H]2C(=O)N[C@H]3C(=O)N[C@H](C(=O)N[C@H](C(=O)O)c4cc(O)cc(O)c4-c4cc3ccc4O)[C@H](O)c3ccc(c(Cl)c3)Oc3cc2cc(c3O[C@@H]2O[C@H](CO)[C@@H](O)[C@H](O)[C@H]2O[C@H]2C[C@](C)(N)[C@H](O)[C@H](C)O2)Oc2ccc(cc2Cl)[C@H]1O [VANCOMYCIN] |  |  |  |  |  |  |  |  |  |  |  |  | Active | inactive | inactive | 0.26 | Active | inactive
